One experiment concerns the target HBV core protein (UniProt P03146). The format is biochemical. Conditions: read-out: Assembly Activity (IC50); BODIPY-FL labelled core protein, assembly started with NaCl, read after 6 min. A digest of the protocol: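 Compounds tested at 8 concentrations in 0.5-log steps from 100, 31.6 or 10 μM against 1.0–2.0 μM BODIPY-FL-labelled Cys150 core dimers (residues 1–149), 50 mM HEPES pH 7.5. NaCl ([…] final) triggered assembly; quenching read at 6 min, 477/525 nm, with 2.5 M and 0 M NaCl as controls; EC50 by nonlinear fit.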

Another experiment has as its system HBV. The experiment in a line: Determination of HBV DNA from the supernatants of HepAD38 cells (anti-HBV activity). In kind it is cell-based, hepatitis B virus. Conditions: Hepatitis B virus, read-out: Cell Activity (EC50). A digest of the protocol: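 EC50 values were obtained by non-linear regression of HBV DNA copy numbers measured by qPCR against pCH-9/3091 plasmid standards. The DNA came from filtered supernatants collected on day 6. Before that, tetracycline-withdrawn HepAD38 cells had been exposed to serial half-log compound dilutions, with tetracycline-treated cells as the non-producing control.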

[1] abbreviates: 144 h, HBV DNA in HepAD38 supernatant at day 6.

Like-named read-outs stand apart in the source and are kept apart here.

Sequence of HBV core protein (P03146 whole entry, looked up, the tested form may be a part): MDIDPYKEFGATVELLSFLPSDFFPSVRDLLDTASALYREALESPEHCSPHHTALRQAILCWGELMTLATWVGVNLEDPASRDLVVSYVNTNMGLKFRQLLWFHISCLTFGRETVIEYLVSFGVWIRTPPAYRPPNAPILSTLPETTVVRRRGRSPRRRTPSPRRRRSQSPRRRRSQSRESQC

As usually defined, the IC50 is the concentration at which inhibition is half-maximal. The EC50 is the concentration that produces a half-maximal response. `COCC(=O)Nc1nc2c(s1)CN(C(=O)c1cc3ccccc3[nH]1)CC2` [Example 3, N-[5-(1H-indole-2-carbonyl)-4H,5H,6H,7H-[1,3]thiazolo[5,4-c]pyridin-2-yl]-2-methoxyacetamide]: the IC50 on HBV core protein was below 5 µM. Also, the EC50 in the experiment with HBV (setting [1]) is below 1000 nM.

Take `O=C1CCC(CNc2nc3c(s2)CN(C(=O)c2cc4ccccc4[nH]2)CC3)N1` (centres unmarked) [Example 404, 5-({[5-(1H-indole-2-carbonyl)-4H,5H,6H,7H-[1,3]thiazolo[5,4-c]pyridin-2-yl]amino}methyl)pyrrolidin-2-one]: on HBV core protein, the IC50 was below 5 µM. For the same compound, the EC50 in the experiment on HBV (setting [1]) is below 1000 nM.

In the case of `CN1CCOCC1CNc1nc2c(s1)CN(C(=O)c1cc3ccccc3[nH]1)CC2` (centres unmarked) [Example 294, 5-(1H-indole-2-carbonyl)-N-[(4-methylmorpholin-3-yl)methyl]-4H,5H,6H,7H-[1,3]thiazolo[5,4-c]pyridin-2-amine], on HBV core protein, the IC50 was below 5 µM. For the same compound, the EC50 in the experiment with HBV (setting [1]) was below 1000 nM.

`CC(C)(C)OC(=O)N1CCOCC1CNc1nc2c(s1)CN(C(=O)c1cc3ccccc3[nH]1)CC2` (centres unmarked) [Example 238, tert-butyl 3-({[5-(1H-indole-2-carbonyl)-4H,5H,6H,7H-[1,3]thiazolo[5,4-c]pyridin-2-yl]amino}methyl)morpholine-4-carboxylate]: the IC50 on HBV core protein is below 100 µM. Further, in the experiment on HBV (setting [1]), the EC50 fell in the range of 1000 to 10000 nM.

Take `O=C(c1cc2ccccc2[nH]1)N1CCc2nc(NC3(CO)CC3)sc2C1` [Example 230, (1-{[5-(1H-indole-2-carbonyl)-4H,5H,6H,7H-[1,3]thiazolo[5,4-c]pyridin-2-yl]amino}cyclopropyl)methanol]: the IC50 at HBV core protein is below 5 µM. In addition, in the experiment on HBV (setting [1]), the EC50 is below 1000 nM.

As for `CC(C)OC(=O)[C@H](C)NP(=O)(OCC1(CNc2nc3c(s2)CN(C(=O)c2cc4c(F)cc(F)cc4[nH]2)CC3)CC1)Oc1ccccc1` (stereo partly drawn) [Example 37, Propan-2-yl (2S)-2-[({[1-({[5-(4,6-difluoro-1H-indole-2-carbonyl)-4H,5H,6H,7H-[1,3]thiazolo[5,4-c]pyridin-2-yl]amino}methyl)cyclopropyl]methoxy}(phenoxy)phosphoryl)amino]propanoate], on HBV core protein, the IC50 is below 100 µM. In addition, the EC50 in the experiment on HBV (HePAD38, 144 h) was below 1000 nM.

Consider `Cc1cccc2[nH]c(C(=O)N3CCc4nc(N)sc4C3)cc12` [Example 149, 5-(4-methyl-1H-indole-2-carbonyl)-41H,5H,6H,7H-[1,3]thiazolo[5,4-c]pyridin-2-amine], for which the IC50 on HBV core protein is below 5 µM. Besides, the EC50 in the experiment with HBV (setting [1]) lay in the range of 1000 to 10000 nM.

As for `COc1nc2c(s1)CN(C(=O)c1cc3ccccc3[nH]1)CC2` [Example 151, 2-{2-methoxy-4H,5H,6H,7H-[1,3]thiazolo[5,4-c]pyridine-5-carbonyl}-1H-indole], at HBV core protein, the IC50 was below 100 µM. The EC50 in the experiment with HBV (setting [1]) lay in the range of 1000 to 10000 nM.

Consider `CCC(C)(CO)CNc1nc2c(s1)CN(C(=O)c1cc3ccccc3[nH]1)CC2` (centres unmarked) [Example 216, 2-({[5-(1H-indole-2-carbonyl)-4H,5H,6H,7H-[1,3]thiazolo[5,4-c]pyridin-2-yl]amino}methyl)-2-methylbutan-1-ol], for which the IC50 at HBV core protein was in the range of 5 to 10 µM. The EC50 with HBV (setting [1]) was below 1000 nM.

Consider `CC(C)OC(=O)[C@H](C)NP(=O)(OCCNc1nc2c(s1)CN(C(=O)c1cc3c(F)cc(F)cc3[nH]1)CC2)Oc1ccccc1` (stereo partly drawn) [Example 100, Propan-2-yl (2S)-2-{[(2-{[5-(4,6-difluoro-1H-indole-2-carbonyl)-4H,5H,6H,7H-[1,3]thiazolo[5,4-c]pyridin-2-yl]amino}ethoxy)(phenoxy)phosphoryl]amino}propanoate], for which the IC50 at HBV core protein is below 100 µM. Further, the EC50 in the experiment on HBV (HePAD38, 144 h) was in the range of 1000 to 10000 nM.

Turning to `CC(C)(C)OC(=O)N1CCC(CNc2nc3c(s2)CN(C(=O)c2cc4ccccc4[nH]2)CC3)C1` (centres unmarked) [Example 392, tert-butyl 3-({[5-(1H-indole-2-carbonyl)-4H,5H,6H,7H-[1,3]thiazolo[5,4-c]pyridin-2-yl]amino}methyl)pyrrolidine-1-carboxylate], the 50% inhibitory concentration (IC50) on HBV core protein is below 5 µM. Besides, in the experiment on HBV (setting [1]), the EC50 was below 1000 nM.

`Cc1nc2c(s1)CN(C(=O)c1cc3c(Cl)cc(Cl)cc3[nH]1)CC2` [Example 188, 4,6-dichloro-2-{2-methyl-4H,5H,6H,7H-[1,3]thiazolo[5,4-c]pyridine-5-carbonyl}-1H-indole]: the IC50 on HBV core protein fell in the range of 5 to 10 µM. Besides, the concentration for a half-maximal effect (EC50) in the experiment on HBV (setting [1]) fell in the range of 1000 to 10000 nM.

`O=C(c1cc2c(F)c(F)ccc2[nH]1)N1CCc2nc(NCC3(O)CCC3)sc2C1` [Example 375, 1-({[5-(4,5-difluoro-1H-indole-2-carbonyl)-4H,5H,6H,7H-[1,3]thiazolo[5,4-c]pyridin-2-yl]amino}methyl)cyclobutan-1-ol]: at HBV core protein, the IC50 is below 5 µM. Besides, the EC50 in the experiment on HBV (setting [1]) is below 1000 nM.

Turning to `O=C(c1cc2ccccc2[nH]1)N1CCc2nc(NCC3CCC3)sc2C1` [Example 418, N-(cyclobutylmethyl)-5-(1H-indole-2-carbonyl)-4H,5H,6H,7H-[1,3]thiazolo[5,4-c]pyridin-2-amine], the IC50 at HBV core protein fell in the range of 5 to 10 µM. Besides, in the experiment with HBV (setting [1]), the EC50 is below 1000 nM.

For `CC(O)c1cccc2[nH]c(C(=O)N3CCc4nc(NCC5CCOC5)sc4C3)cc12` (centres unmarked) [Example 244, 1-[2-(2-{[(oxolan-3-yl)methyl]amino}-4H,5H,6H,7H-[1,3]thiazolo[5,4-c]pyridine-5-carbonyl)-1H-indol-4-yl]ethan-1-ol], the IC50 at HBV core protein was below 100 µM. In addition, in the experiment with HBV (setting [1]), the EC50 is below 1000 nM.

As to `O=C(c1cc2ccccc2[nH]1)N1CCc2nc(N3CCOCC3)sc2C1` [Example 166, 2-[2-(morpholin-4-yl)-4H,5H,6H,7H-[1,3]thiazolo[5,4-c]pyridine-5-carbonyl]-1H-indole], at HBV core protein, the IC50 was below 100 µM. In the experiment on HBV (setting [1]), the EC50 lay within 1000 to 10000 nM.

`O=C(c1cc2ccccc2[nH]1)N1CCc2nc(NCCCN3CCOCC3)sc2C1` [Example 73, 5-(1H-indole-2-carbonyl)-N-[3-(morpholin-4-yl)propyl]-4H,5H,6H,7H-[1,3]thiazolo[5,4-c]pyridin-2-amine]: at HBV core protein, the IC50 is below 5 µM. In addition, in the experiment with HBV (setting [1]), the EC50 was below 1000 nM.

In the case of `O=C(c1cc2ccccc2[nH]1)N1CCc2nc(NC3CCOCC3)sc2C1` [Example 206, 5-(1H-indole-2-carbonyl)-N-(oxan-4-yl)-4H,5H,6H,7H-[1,3]thiazolo[5,4-c]pyridin-2-amine], on HBV core protein, the IC50 was below 5 µM. In the experiment with HBV (setting [1]), the EC50 was below 1000 nM.

Consider `CC(F)(F)c1cc(F)cc2[nH]c(C(=O)N3CCc4nc(N)sc4C3)cc12` [Example 290, 5-[4-(1,1-difluoroethyl)-6-fluoro-1H-indole-2-carbonyl]-4H,5H,6H,7H-[1,3]thiazolo[5,4-c]pyridin-2-amine], for which the IC50 at HBV core protein is below 5 µM. The EC50 in the experiment with HBV (setting [1]) was below 1000 nM.

Take `CCOC(=O)N1CCC(Nc2nc3c(s2)CN(C(=O)c2cc4ccccc4[nH]2)CC3)CC1` [Example 5, Ethyl 4-{[5-(1H-indole-2-carbonyl)-4H,5H,6H,7H-[1,3]thiazolo[5,4-c]pyridin-2-yl]amino}piperidine-1-carboxylate]: the IC50 at HBV core protein was in the range of 5 to 10 µM. Further, the EC50 with HBV (setting [1]) was below 1000 nM.

`CC1c2sc(N)nc2CCN1C(=O)c1cc2ccccc2[nH]1` (centres unmarked) [Example 109, 5-(1H-indole-2-carbonyl)-4-methyl-4H,5H,6H,7H-[1,3]thiazolo[5,4-c]pyridin-2-amine]: the IC50 on HBV core protein is below 100 µM. Moreover, the EC50 with HBV (setting [1]) is below 100000 nM.

As to `CCc1cccc2[nH]c(C(=O)N3CCc4nc(NCC5(O)CCC5)sc4C3)cc12` [Example 338, 1-({[5-(4-ethyl-1H-indole-2-carbonyl)-4H,5H,6H,7H-[1,3]thiazolo[5,4-c]pyridin-2-yl]amino}methyl)cyclobutan-1-ol], at HBV core protein, the IC50 is below 5 µM. The concentration giving a half-maximal response (EC50) with HBV (setting [1]) is below 1000 nM.

In the case of `CC(C)(O)CNc1nc2c(s1)CN(C(=O)c1cc3ccccc3[nH]1)CC2` [Example 95, 1-{[5-(1H-indole-2-carbonyl)-4H,5H,6H,7H-[1,3]thiazolo[5,4-c]pyridin-2-yl]amino}-2-methylpropan-2-ol], at HBV core protein, the IC50 was below 5 µM. In addition, the EC50 with HBV (setting [1]) is below 1000 nM.

As for `Nc1nc2c(s1)CN(C(=O)c1cc3c(F)cc(Cl)cc3[nH]1)CC2` [Example 147, 5-(6-chloro-4-fluoro-1H-indole-2-carbonyl)-4H,5H,6H,7H-[1,3]thiazolo[5,4-c]pyridin-2-amine], at HBV core protein, the IC50 was below 5 µM. The EC50 in the experiment with HBV (setting [1]) is below 1000 nM.

With `CN(C)c1nc2c(s1)CN(C(=O)c1cc3ccccc3[nH]1)CC2` [Example 204, 5-(1H-indole-2-carbonyl)-N,N-dimethyl-4H,5H,6H,7H-[1,3]thiazolo[5,4-c]pyridin-2-amine], the IC50 at HBV core protein is below 100 µM. For the same compound, the EC50 with HBV (setting [1]) lay in the range of 1000 to 10000 nM.

Take `CCc1ccc(F)c2[nH]c(C(=O)N3CCc4nc(NCC5(CO)CC5)sc4C3)cc12` [Example 236, [1-({[5-(4-ethyl-7-fluoro-1H-indole-2-carbonyl)-4H,5H,6H,7H-[1,3]thiazolo[5,4-c]pyridin-2-yl]amino}methyl)cyclopropyl]methanol]: the IC50 on HBV core protein is below 5 µM. For the same compound, the EC50 in the experiment on HBV (setting [1]) was below 1000 nM.

In the case of `O=C(c1cc2c(CO)cccc2[nH]1)N1CCc2nc(NCC3(O)CCC3)sc2C1` [Example 367, 1-[({5-[4-(hydroxymethyl)-1H-indole-2-carbonyl]-4H,5H,6H,7H-[1,3]thiazolo[5,4-c]pyridin-2-yl}amino)methyl]cyclobutan-1-ol], on HBV core protein, the IC50 is below 100 µM. In addition, the EC50 in the experiment on HBV (setting [1]) was below 1000 nM.

`Nc1nc2c(s1)CN(C(=O)c1[nH]c3ccccc3c1F)CC2` [Example 220, 5-(3-fluoro-1H-indole-2-carbonyl)-4H,5H,6H,7H-[1,3]thiazolo[5,4-c]pyridin-2-amine]: at HBV core protein, the IC50 is below 100 µM. For the same compound, the EC50 in the experiment with HBV (setting [1]) lay within 1000 to 10000 nM.

The values are drawn from patent US11267825B2 (AICURIS GMBH & CO. KG, priority 2017, dated 2022).
